Measured values taken from paper PMC10154249, “Unique progerin C-terminal peptide ameliorates Hutchinson–Gilford progeria syndrome phenotype by rescuing BUBR1” (Nature Aging, 2023).

What was measured:
[1] = system: BUBR1 binding to BUB3 and CDC20; assay: CoIP of BUBR1 and SAC proteins BUB3 and CDC20 in HEK-293T cells; format: cell-based; settings: UPCP 18 μM, nocodazole 200 ng ml^–1
Description: Detailed descriptions of CoIP were described previously[55],[56]. Cells were harvested and washed three times in cold PBS, then lysed in CoIP buffer (25 mM Tris-HCl (pH 7.5), 150 mM KCl, 5 mM EDTA, and 0.5% NP-40) plus protease inhibitor cocktail tablet (Roche). Incubate on ice and shock lysates on the vortex shaker 15 times for 30 s each. Microcentrifuge in 12,000g for 15 min at 4 °C, collect the supernatant, and incubate with 3 μg primary antibodies with gentle shaking overnight at 4 °C, followed by adding 20–40 μl Pure Proteome Protein A/G Mix Magnetic Beads (Millipore, catalog no. […]02) for 3 h. Wash the beads three times with 1 ml CoIP buffer for 8 min each, resuspend in 50 μl 1× loading buffer, and incubate at 100 °C for 8 min. Throw beads away and analyze by immunoblotting.

[2] = system: BUBR1 kinetochore localization in H1299 cells; assay: Immunofluorescence, abnormal localization of BUBR1 in H1299 cells; format: cell-based; settings: for Relative percentage of the number of abnormal localization cells of BUBR1: Fig. 3h, H1299, progerin+UPCP, P=0.0202 vs progerin
Description: Immunofluorescence was performed as described previously. Cells were plated on cover slips in 12-well plates, left overnight before the treatment. Cells were fixed in 1% formaldehyde in culture medium for 10 min at 37 °C and permeabilized with 0.2% Triton X-100 in PBS for 10 min at room temperature. Cells were washed twice in PBS and blocked for 1 h with 5% BSA in PBS and then incubated with primary antibodies at 4 °C overnight, washed three times in PBS and incubated with secondary antibodies for 1 h at room temperature. Cell nuclei were counterstained with a 500 nM concentration of 4,6-diamidino-2-phenylindole (DAPI) (Sigma). Images were acquired by a fluorescence microscope (OLYMPUS FV-1000, Carl Zeiss LSM880 or Leica DMi8) and analyzed with software NIS-Elements AR v.5.0.1 (Nikon), FLUOVIEW v.4.2b (OLYMPUS), ZEN v.2.3 SP1 (Carl Zeiss) and Leica Application Suite X v.3.6.0.24 (Leica). Cells were quantified by investigators who were blinded to the identity of the analyzed cell.

Lmna^G609G/G609G mice = assay: Bodyweight of Lmna^G609G/G609G mice; format: in vivo, mouse; settings: 20 mg kg^–1 i.p. every other day from 14 days of age
From the text: All animal experiments were approved by the Ethics Committee of School of Life Sciences, Northeast Normal University, China (AP20191011) and carried out in accordance with the relevant guidelines: National Standards of the People’s Republic of China (GB/T 35892–2018), Laboratory Animal—Guideline for Ethical Review of Animal Welfare. We generated a mouse model (ICR background), carrying the Lmna^G609G using the BE4-Gam system. The protocols for the BE4-Gam system and microinjection of pronuclear-stage embryos have been described in detail previously[37],[38],[59]. Briefly, a mixture of BE4-Gam mRNA (200 ng μl^–1) and sgRNA-Lmna (30 ng μl^–1) was coinjected into the cytoplasm of pronuclear-stage embryos of the mouse. The injected embryos were transferred to embryo culture medium for 30–60 min, followed by transferring the injected embryos into the recipient mother. The embryos continued to develop and the founder mice (referred to as F0) were born: wild-type mice (Lmna^+/+), heterozygous mice (Lmna^G609G/+) and homozygous mice (Lmna^G609G/G609G). […]
For UPCP injection, 14-day-old Lmna^G609G/G609G mice were injected intraperitoneally with either PBS or UPCP (20 mg kg^–1, every other day) and wild-type mice were injected with PBS. […] Bodyweight and lifespan were monitored after UPCP treatment. The survival rate was analyzed by the Kaplan–Meier method. […]

H-YGRKKRRQRRRYNLRSRTVLCGTCGQPADKASASGSGAQSPQNCSIM-OH (cysteines drawn unpaired) [UPCP, unique progerin C-terminal peptide]
binding of BUBR1 to SAC proteins (BUB3 or CDC20) [1]: did not block the binding of BUBR1 to other proteins such as PTBP1 or other SAC proteins (BUB3 or CDC20) | Relative percentage of the number of abnormal localization cells of BUBR1 ([2]; replicate 1): 25% | Relative percentage of the number of abnormal localization cells of BUBR1 ([2]; replicate 2): 18% | Relative percentage of the number of abnormal localization cells of BUBR1 ([2]; replicate 3): 27% | BUBR1 localization to the kinetochore ([2]; H1299 cells, immunofluorescence): correctly localized BUBR1 to the kinetochore | bodyweight, female (Lmna^G609G/G609G mice; female): slow down the bodyweight loss | bodyweight, male (Lmna^G609G/G609G mice; male): increase the bodyweight
